These results are taken from paper PMC5218480 (PLoS ONE, 2017).

The test system of the assay is MV-4-11 cells. Kind of assay: Gene expression microarray analysis (Affymetrix PrimeView) and GSEA. Format: cell-based, human. More on the design: RFU PODN (11730768_x_at) / Fold change /veh PODN (11730768_x_at) / RFU LINC00158 (11744669_a_at) / Fold change /veh LINC00158 (11744669_a_at) / RFU DUSP10 (11751237_a_at) / Fold change /veh DUSP10 (11751237_a_at) / RFU ID3 (11757404_x_at) / Fold change /veh ID3 (11757404_x_at) / RFU PLEKHG5 (11737974_s_at) / Fold change /veh PLEKHG5 (11737974_s_at) / RFU LRRC4B (11730491_at) / Fold change /veh LRRC4B (11730491_at) / RFU GIMAP4 (11747438_a_at) / Fold change /veh GIMAP4 (11747438_a_at) / RFU KRT8 (11758183_x_at) / Fold change /veh KRT8 (11758183_x_at) / RFU CNN1 (11734310_a_at) / Fold change /veh CNN1 (11734310_a_at) / RFU VPS37D (11726825_at) / Fold change /veh VPS37D (11726825_at) / RFU C10orf10 (11716522_x_at) / Fold change /veh C10orf10 (11716522_x_at) / RFU KIR2DL2 /// KIR2DL4 /// KIR2DL5A /// KIR2DL5B /// KIR2DS1 /// KIR2DS2 /// KIR2DS3 /// KIR2DS4 /// KIR3DL3 /// KIR3DL3 /// KIR3DS1 (11738374_at) / Fold change /veh KIR2DL2 /// KIR2DL4 /// KIR2DL5A /// KIR2DL5B /// KIR2DS1 /// KIR2DS2 /// KIR2DS3 /// KIR2DS4 /// KIR3DL3 /// KIR3DL3 /// KIR3DS1 (11738374_at) / RFU C1QL1 (11718748_at) / Fold change /veh C1QL1 (11718748_at) / RFU TMPRSS4 (11747572_a_at) / Fold change /veh TMPRSS4 (11747572_a_at) / RFU HAMP (11756126_x_at) / Fold change /veh HAMP (11756126_x_at) / RFU RNFT2 (11725882_a_at) / Fold change /veh RNFT2 (11725882_a_at) / RFU NR4A2 (11747474_a_at) / Fold change /veh NR4A2 (11747474_a_at) / RFU ABCC12 (11746883_a_at) / Fold change /veh ABCC12 (11746883_a_at) / RFU TMEM136 (11760407_x_at) / Fold change /veh TMEM136 (11760407_x_at) / RFU CLDN22 /// WWC2 (11732394_at) / Fold change /veh CLDN22 /// WWC2 (11732394_at) / RFU HLA-DPB1 (11760878_x_at) / Fold change /veh HLA-DPB1 (11760878_x_at) / RFU SPINT1 (11716480_a_at) / Fold change /veh SPINT1 (11716480_a_at) / RFU GAP43 (11754022_s_at) / Fold change /veh GAP43 (11754022_s_at) / RFU A4GNT (11735810_at) / Fold change /veh A4GNT (11735810_at) / RFU PRB3 (11715151_x_at) / Fold change /veh PRB3 (11715151_x_at) / RFU TUBB4B (11761932_at) / Fold change /veh TUBB4B (11761932_at) / RFU CAPN14 (11732068_a_at) / Fold change /veh CAPN14 (11732068_a_at) / RFU TMCC2 (11721928_a_at) / Fold change /veh TMCC2 (11721928_a_at) / RFU IRGQ (11745062_a_at) / Fold change /veh IRGQ (11745062_a_at) / RFU FAM174B (11720279_a_at) / Fold change /veh FAM174B (11720279_a_at) / RFU TMPRSS4 (11748680_a_at) / Fold change /veh TMPRSS4 (11748680_a_at) / RFU FAM212B (11763350_a_at) / Fold change /veh FAM212B (11763350_a_at) / RFU PLEKHG5 (11743358_a_at) / Fold change /veh PLEKHG5 (11743358_a_at) / RFU ZSCAN30 (11745921_a_at) / Fold change /veh ZSCAN30 (11745921_a_at) / RFU CMKLR1 (11741424_a_at) / Fold change /veh CMKLR1 (11741424_a_at) / RFU LOC101060620 /// MAPK8IP1 (11723275_at) / Fold change /veh LOC101060620 /// MAPK8IP1 (11723275_at) / RFU SPTSSB (11747773_x_at) / Fold change /veh SPTSSB (11747773_x_at) / RFU PRSS12 (11739890_at) / Fold change /veh PRSS12 (11739890_at) / RFU BIN1 (11741810_x_at) / Fold change /veh BIN1 (11741810_x_at) / RFU WNT11 (11732464_a_at) / Fold change /veh WNT11 (11732464_a_at) / RFU C10orf10 (11716521_a_at) / Fold change /veh C10orf10 (11716521_a_at) / RFU C5orf56 (11738089_at) / Fold change /veh C5orf56 (11738089_at) / RFU CYB561 (11721691_x_at) / Fold change /veh CYB561 (11721691_x_at) / RFU ANKRD19P (11752326_a_at) / Fold change /veh ANKRD19P (11752326_a_at) / RFU OR2T12 /// OR2T33 /// OR2T8 (11738714_s_at) / Fold change /veh OR2T12 /// OR2T33 /// OR2T8 (11738714_s_at) / RFU VCAN (11748164_a_at) / Fold change /veh VCAN (11748164_a_at) / RFU JSRP1 (11732532_at) / Fold change /veh JSRP1 (11732532_at) / RFU KRTAP10-11 (11738290_x_at) / Fold change /veh KRTAP10-11 (11738290_x_at) / RFU MYO3A (11730013_a_at) / Fold change /veh MYO3A (11730013_a_at) / RFU EBF3 (11725865_a_at) / Fold change /veh EBF3 (11725865_a_at) / RFU CAMK2N1 (11719241_x_at) / Fold change /veh CAMK2N1 (11719241_x_at) / RFU C5orf56 (11738088_a_at) / Fold change /veh C5orf56 (11738088_a_at) / RFU OLFML3 (11715873_a_at) / Fold change /veh OLFML3 (11715873_a_at) / RFU LOC100653217 /// NTM (11731650_a_at) / Fold change /veh LOC100653217 /// NTM (11731650_a_at) / RFU MAPK11 (11762145_a_at) / Fold change /veh MAPK11 (11762145_a_at) / RFU FIZ1 (11724087_x_at) / Fold change /veh FIZ1 (11724087_x_at) / RFU OASL (11726364_x_at) / Fold change /veh OASL (11726364_x_at) / RFU SOX15 (11748057_x_at) / Fold change /veh SOX15 (11748057_x_at) / RFU CD79A (11719716_a_at) / Fold change /veh CD79A (11719716_a_at) / RFU HIST1H1D (11736915_at) / Fold change /veh HIST1H1D (11736915_at) / RFU CASKIN2 (11723855_a_at) / Fold change /veh CASKIN2 (11723855_a_at) / RFU LOC730098 (11760151_x_at) / Fold change /veh LOC730098 (11760151_x_at) / RFU OR4N2 (11742367_at) / Fold change /veh OR4N2 (11742367_at) / RFU PRRT2 (11749266_a_at) / Fold change /veh PRRT2 (11749266_a_at) / RFU SNX32 (11753110_a_at) / Fold change /veh SNX32 (11753110_a_at) / RFU CDHR5 (11726645_a_at) / Fold change /veh CDHR5 (11726645_a_at) / RFU RCAN1 (11760418_a_at) / Fold change /veh RCAN1 (11760418_a_at) / RFU FAM167A (11723789_a_at) / Fold change /veh FAM167A (11723789_a_at) / RFU FAM26E (11764081_at) / Fold change /veh FAM26E (11764081_at) / RFU ISYNA1 (11749810_s_at) / Fold change /veh ISYNA1 (11749810_s_at) / RFU ACY1 (11761880_at) / Fold change /veh ACY1 (11761880_at) / RFU 11764098_at / Fold change /veh 11764098_at / RFU SAMD14 (11745864_x_at) / Fold change /veh SAMD14 (11745864_x_at) / RFU NPB (11741838_a_at) / Fold change /veh NPB (11741838_a_at) / RFU TMPRSS6 (11731388_a_at) / Fold change /veh TMPRSS6 (11731388_a_at) / RFU KRTAP10-2 (11738614_at) / Fold change /veh KRTAP10-2 (11738614_at) / RFU ARHGAP8 /// PRR5-ARHGAP8 (11727945_x_at) / Fold change /veh ARHGAP8 /// PRR5-ARHGAP8 (11727945_x_at) / RFU KRTAP5-7 /// NADSYN1 (11734609_at) / Fold change /veh KRTAP5-7 /// NADSYN1 (11734609_at) / RFU RASL12 (11751679_a_at) / Fold change /veh RASL12 (11751679_a_at) / RFU CDKN2B (11736163_a_at) / Fold change /veh CDKN2B (11736163_a_at) / RFU PRF1 (11729649_at) / Fold change /veh PRF1 (11729649_at) / RFU, ZNF638 /// ZNF638-IT1 / Fold change vs veh, ZNF638 /// ZNF638-IT1 / RFU, PANK3 / Fold change vs veh, PANK3 / RFU, SH3YL1 / Fold change vs veh, SH3YL1 / RFU, ZEB2 / Fold change vs veh, ZEB2 / RFU, NRIP1 / Fold change vs veh, NRIP1 / RFU, PTTG1IP / Fold change vs veh, PTTG1IP / RFU, CAPN2 / Fold change vs veh, CAPN2 / RFU, MED14 / Fold change vs veh, MED14 / RFU, SNORA58 / Fold change vs veh, SNORA58 / RFU, C1orf63 / Fold change vs veh, C1orf63 / RFU, LRRFIP1 / Fold change vs veh, LRRFIP1 / RFU, NDUFAF7 / Fold change vs veh, NDUFAF7 / RFU, SLC12A2 / Fold change vs veh, SLC12A2 / RFU, IBTK / Fold change vs veh, IBTK / RFU, ESF1 / Fold change vs veh, ESF1 / Fold change vs veh, TMEM50B / RFU, TAOK1 / Fold change vs veh, TAOK1 / RFU, ACBD3 / Fold change vs veh, ACBD3 / RFU, TMA16 / Fold change vs veh, TMA16 / RFU, RWDD3 / Fold change vs veh, RWDD3 / RFU, BCAT1 / Fold change vs veh, BCAT1 / RFU, EDEM3 / Fold change vs veh, EDEM3 / RFU, TMEM33 / Fold change vs veh, TMEM33 / RFU, WDR75 / Fold change vs veh, WDR75 / RFU, AHCTF1 / Fold change vs veh, AHCTF1 / RFU, TFRC / Fold change vs veh, TFRC / RFU, ZDHHC17 / Fold change vs veh, ZDHHC17 / RFU, NOM1 / Fold change vs veh, NOM1 / RFU, ARL8B / Fold change vs veh, ARL8B / RFU, ZBTB11 / Fold change vs veh, ZBTB11 / RFU, TAMM41 / Fold change vs veh, TAMM41 / RFU, KIAA1704 /// LOC100996395 / Fold change vs veh, KIAA1704 /// LOC100996395 / RFU, ING1 / Fold change vs veh, ING1 / RFU, TRMT61B / Fold change vs veh, TRMT61B / RFU, FUBP3 / Fold change vs veh, FUBP3 / RFU, TP53 / Fold change vs veh, TP53 / RFU, TNKS2 / Fold change vs veh, TNKS2 / RFU, ZFP14 / Fold change vs veh, ZFP14 / RFU, ACTR2 / Fold change vs veh, ACTR2 / RFU, PPP3R1 / Fold change vs veh, PPP3R1 / RFU, PIK3R1 / Fold change vs veh, PIK3R1 / RFU, HNRNPA1 / Fold change vs veh, HNRNPA1 / RFU, RNF170 / Fold change vs veh, RNF170 / RFU, ZNF28 / Fold change vs veh, ZNF28 / RFU, RNGTT / Fold change vs veh, RNGTT / RFU, OGT / Fold change vs veh, OGT / RFU, BRD1 / Fold change vs veh, BRD1 / RFU, MARS / Fold change vs veh, MARS / RFU, ZNF655 / Fold change vs veh, ZNF655 / RFU, FAHD1 / Fold change vs veh, FAHD1 / RFU, BDP1 / Fold change vs veh, BDP1 / RFU, LRRCC1 / Fold change vs veh, LRRCC1 / RFU, ARID1A / Fold change vs veh, ARID1A / RFU, ZNF146 / Fold change vs veh, ZNF146 / RFU, ZNF330 / Fold change vs veh, ZNF330 / RFU, GPN3 / Fold change vs veh, GPN3 / RFU, C9orf123 / Fold change vs veh, C9orf123 / RFU, N4BP2L2 / Fold change vs veh, N4BP2L2 / RFU, ARFIP1 / Fold change vs veh, ARFIP1 / RFU, FAM179B / Fold change vs veh, FAM179B / RFU, BCL10 / Fold change vs veh, BCL10 / RFU, UHRF1BP1L / Fold change vs veh, UHRF1BP1L / RFU, BET1 / Fold change vs veh, BET1 / RFU, CNOT2 / Fold change vs veh, CNOT2 / RFU, ZNF268 / Fold change vs veh, ZNF268 / Fold change vs veh, ZNF507 / RFU, DGCR2 / Fold change vs veh, DGCR2 / RFU, WDSUB1 / Fold change vs veh, WDSUB1 / Fold change vs veh, HSP90B1 /// MIR3652 / RFU, ADSS / Fold change vs veh, ADSS / RFU, GK / Fold change vs veh, GK / RFU, ZNF148 / Fold change vs veh, ZNF148 / RFU, TAF9 / Fold change vs veh, TAF9 / RFU, SLC1A5 / Fold change vs veh, SLC1A5 / RFU, SLMO2 / Fold change vs veh, SLMO2 / RFU, ABCC4 / Fold change vs veh, ABCC4 / RFU, LOC101060439 /// RAP1B / Fold change vs veh, LOC101060439 /// RAP1B / RFU, RFX7 / Fold change vs veh, RFX7 / RFU, GTPBP10 / Fold change vs veh, GTPBP10 / RFU, CNEP1R1 / Fold change vs veh, CNEP1R1 / RFU, BIVM-ERCC5 /// ERCC5 / Fold change vs veh, BIVM-ERCC5 /// ERCC5 / RFU, ILF3 / Fold change vs veh, ILF3 / RFU 11762660_at / Fold change /veh 11762660_at / RFU VCAN (11757783_s_at) / Fold change /veh VCAN (11757783_s_at) / RFU DDX43 (11728927_at) / Fold change /veh DDX43 (11728927_at) / RFU KRT8 (11758188_x_at) / Fold change /veh KRT8 (11758188_x_at) / RFU NKD1 (11759106_at) / Fold change /veh NKD1 (11759106_at) / RFU SRD5A1 (11742802_a_at) / Fold change /veh SRD5A1 (11742802_a_at) / RFU TPSAB1 /// TPSB2 (11721975_s_at) / Fold change /veh TPSAB1 /// TPSB2 (11721975_s_at) / RFU GSTM3 (11746129_a_at) / Fold change /veh GSTM3 (11746129_a_at) / RFU IL23R (11737362_x_at) / Fold change /veh IL23R (11737362_x_at) / RFU TMEM51 (11727254_a_at) / Fold change /veh TMEM51 (11727254_a_at) / RFU PIWIL2 (11732686_x_at) / Fold change /veh PIWIL2 (11732686_x_at) / RFU ORM1 (11744905_x_at) / Fold change /veh ORM1 (11744905_x_at) / RFU CCDC152 (11743942_at) / Fold change /veh CCDC152 (11743942_at) / RFU ECM1 (11717891_a_at) / Fold change /veh ECM1 (11717891_a_at) / RFU IL23R (11748794_a_at) / Fold change /veh IL23R (11748794_a_at) / RFU TNFAIP8L3 (11732012_x_at) / Fold change /veh TNFAIP8L3 (11732012_x_at) / RFU MBOAT4 (11741988_at) / Fold change /veh MBOAT4 (11741988_at) / RFU 11764193_at / Fold change /veh 11764193_at / RFU TMEM53 (11763286_at) / Fold change /veh TMEM53 (11763286_at) / RFU MAGEB2 (11727129_at) / Fold change /veh MAGEB2 (11727129_at) / RFU TMEM200A (11744735_a_at) / Fold change /veh TMEM200A (11744735_a_at) / RFU CCDC152 (11751479_a_at) / Fold change /veh CCDC152 (11751479_a_at) / RFU FAM211A (11726209_a_at) / Fold change /veh FAM211A (11726209_a_at) / RFU RGS16 (11746705_a_at) / Fold change /veh RGS16 (11746705_a_at) / RFU VCAN (11755009_s_at) / Fold change /veh VCAN (11755009_s_at) / RFU RHOB (11743442_s_at) / Fold change /veh RHOB (11743442_s_at) / RFU RGS16 (11720943_a_at) / Fold change /veh RGS16 (11720943_a_at) / RFU RGS16 (11720944_at) / Fold change /veh RGS16 (11720944_at) / RFU, VPS4B / Fold change vs veh, VPS4B / RFU, CREB1 / Fold change vs veh, CREB1 / RFU, DNAJC13 / Fold change vs veh, DNAJC13 / RFU, GNAQ / Fold change vs veh, GNAQ / RFU, CDK5R1 / Fold change vs veh, CDK5R1 / RFU, ZRANB3 / Fold change vs veh, ZRANB3 / RFU, CUL4A / Fold change vs veh, CUL4A / RFU, CCNY / Fold change vs veh, CCNY / RFU, UFL1 / Fold change vs veh, UFL1 / RFU, COG3 / Fold change vs veh, COG3 / RFU, DIAPH2 / Fold change vs veh, DIAPH2 / RFU, SKA2 / Fold change vs veh, SKA2 / RFU, AFF3 / Fold change vs veh, AFF3 / RFU, LMF1 / Fold change vs veh, LMF1 / RFU, IPO11 / Fold change vs veh, IPO11 / RFU, DFFB / Fold change vs veh, DFFB / RFU, FOXP1 / Fold change vs veh, FOXP1 / RFU, CARD8 / Fold change vs veh, CARD8 / RFU, STRN3 / Fold change vs veh, STRN3 / RFU, ADK / Fold change vs veh, ADK / RFU, RASSF2 / Fold change vs veh, RASSF2 / RFU, WIPF1 / Fold change vs veh, WIPF1 / RFU, LARP1B / Fold change vs veh, LARP1B / RFU, RASA1 / Fold change vs veh, RASA1 / RFU, RB1 / Fold change vs veh, RB1 / RFU, PPFIA1 / Fold change vs veh, PPFIA1 / RFU, MAT2A / Fold change vs veh, MAT2A / RFU, CCT5 / Fold change vs veh, CCT5 / RFU, WDR92 / Fold change vs veh, WDR92 / RFU, CUX1 / Fold change vs veh, CUX1 / RFU, TTC7A / Fold change vs veh, TTC7A / RFU, TMEM135 / Fold change vs veh, TMEM135 / RFU, DEPTOR / Fold change vs veh, DEPTOR / RFU, CPM / Fold change vs veh, CPM / RFU, DNAJB6 / Fold change vs veh, DNAJB6 / RFU, CACNA2D3 / Fold change vs veh, CACNA2D3 / RFU, DTX4 / Fold change vs veh, DTX4 / RFU, TFCP2 / Fold change vs veh, TFCP2 / RFU, GMCL1 /// GMCL1P1 / Fold change vs veh, GMCL1 /// GMCL1P1 / RFU, AEBP2 / Fold change vs veh, AEBP2 / RFU, SNHG1 /// SNORD22 /// SNORD25 /// SNORD26 /// SNORD27 /// SNORD28 /// SNORD29 /// SNORD31 / Fold change vs veh, SNHG1 /// SNORD22 /// SNORD25 /// SNORD26 /// SNORD27 /// SNORD28 /// SNORD29 /// SNORD31 / Fold change (Aza/veh), C12orf56 (ProbeSet 11735607_a_at) / Fold change (ACY-1035/veh), C12orf56 (ProbeSet 11735607_a_at) / Fold change (Aza/veh), FGFR1OP (ProbeSet 11751329_s_at) / Fold change (ACY-1035/veh), FGFR1OP (ProbeSet 11751329_s_at) / Fold change (Aza/veh), VPS36 (ProbeSet 11739960_a_at) / Fold change (ACY-1035/veh), VPS36 (ProbeSet 11739960_a_at) / RFU SYPL1 (11715823_x_at) / Fold change /veh SYPL1 (11715823_x_at) / RFU IGFBP7 (11715501_s_at) / Fold change /veh IGFBP7 (11715501_s_at) / RFU REEP3 (11722064_at) / Fold change /veh REEP3 (11722064_at) / RFU IGLL1 (11728026_x_at) / Fold change /veh IGLL1 (11728026_x_at): dose or concentration left out as unconfirmed. To be noted: MV-4-11 cells, 48 hours.

Take `Nc1ncn([C@@H]2O[C@H](CO)[C@@H](O)[C@H]2O)c(=O)n1` [azacitidine]: the “Fold change /veh PRRT2 (11749266_a_at)” value turned out to be 0.89.
